“And” between values parts separate entries of the source, which are not always exact repeats. Identical values can stand only once.
Assays:
[1] = target: T1, CDK2/cyclin A (Homo sapiens, UniProt P24941); assay: Carna IC50 determination; format: biochemical; settings: around Km [ATP]
T1 construct: purchased Carna Biosciences
Description: (§1) IC50 values were determined from a 10-point concentration curve using ATP concentrations approximating Km values. […] The percentage inhibition of each test solution was calculated, which allowed the IC50 value to be determined from concentration versus percentage inhibition curves by fitting to a four parameter logistic curve.

[2] = target: T2, CDK3/cyclin E1 (Homo sapiens, UniProt Q00526); assay: Carna IC50 determination; format: biochemical; settings: around Km [ATP]
T2 construct: purchased Carna Biosciences
Description: as §1

[3] = target: T3, CDK4/cyclin D3 (Homo sapiens, UniProt P11802); assay: Carna IC50 determination; format: biochemical; settings: around Km [ATP]
T3 construct: made in house
T3 sequence (P11802 whole entry): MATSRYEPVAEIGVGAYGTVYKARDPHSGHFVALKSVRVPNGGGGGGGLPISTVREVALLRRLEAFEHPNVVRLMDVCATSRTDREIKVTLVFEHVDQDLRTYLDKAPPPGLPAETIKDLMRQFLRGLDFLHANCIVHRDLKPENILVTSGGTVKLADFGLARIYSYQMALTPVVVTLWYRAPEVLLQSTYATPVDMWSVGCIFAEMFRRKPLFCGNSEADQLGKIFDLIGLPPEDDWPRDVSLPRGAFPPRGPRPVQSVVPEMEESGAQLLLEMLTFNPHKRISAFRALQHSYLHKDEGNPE
T3 sequence (P30281 whole entry partner): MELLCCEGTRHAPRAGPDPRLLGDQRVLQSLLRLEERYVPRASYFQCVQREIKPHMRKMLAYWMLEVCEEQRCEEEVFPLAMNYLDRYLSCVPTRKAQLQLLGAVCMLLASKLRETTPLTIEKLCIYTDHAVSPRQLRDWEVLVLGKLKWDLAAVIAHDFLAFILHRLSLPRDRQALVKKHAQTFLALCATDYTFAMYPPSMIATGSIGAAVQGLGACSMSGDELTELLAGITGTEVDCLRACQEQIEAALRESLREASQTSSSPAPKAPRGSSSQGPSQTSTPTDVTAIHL
Description: as §1

[4] = target: T4, CDK5/p25 (Homo sapiens, UniProt Q00535); assay: Carna IC50 determination; format: biochemical; settings: around Km [ATP]
T4 construct: purchased Carna Biosciences
T4 sequence (Q00535 whole entry): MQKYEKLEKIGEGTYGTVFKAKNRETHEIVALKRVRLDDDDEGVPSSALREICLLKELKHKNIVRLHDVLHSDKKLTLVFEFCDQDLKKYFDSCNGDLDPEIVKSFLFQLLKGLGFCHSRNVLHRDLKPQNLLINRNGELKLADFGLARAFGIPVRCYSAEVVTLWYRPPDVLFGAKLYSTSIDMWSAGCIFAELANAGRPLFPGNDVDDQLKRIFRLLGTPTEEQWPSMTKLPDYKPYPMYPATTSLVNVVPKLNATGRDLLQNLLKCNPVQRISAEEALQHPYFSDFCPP
T4 sequence (Q15078 99-307 partner limits assumed): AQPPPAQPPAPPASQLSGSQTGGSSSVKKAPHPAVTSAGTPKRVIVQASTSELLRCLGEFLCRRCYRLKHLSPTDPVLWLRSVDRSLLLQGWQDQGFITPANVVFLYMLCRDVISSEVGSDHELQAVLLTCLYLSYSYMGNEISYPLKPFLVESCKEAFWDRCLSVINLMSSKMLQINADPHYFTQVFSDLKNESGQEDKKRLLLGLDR
Description: as §1

[5] = target: T5, CLK1 (Homo sapiens, UniProt P49759); assay: Carna IC50 determination; format: biochemical; settings: around Km [ATP]
T5 construct: purchased Carna Biosciences
T5 sequence (P49759 whole entry): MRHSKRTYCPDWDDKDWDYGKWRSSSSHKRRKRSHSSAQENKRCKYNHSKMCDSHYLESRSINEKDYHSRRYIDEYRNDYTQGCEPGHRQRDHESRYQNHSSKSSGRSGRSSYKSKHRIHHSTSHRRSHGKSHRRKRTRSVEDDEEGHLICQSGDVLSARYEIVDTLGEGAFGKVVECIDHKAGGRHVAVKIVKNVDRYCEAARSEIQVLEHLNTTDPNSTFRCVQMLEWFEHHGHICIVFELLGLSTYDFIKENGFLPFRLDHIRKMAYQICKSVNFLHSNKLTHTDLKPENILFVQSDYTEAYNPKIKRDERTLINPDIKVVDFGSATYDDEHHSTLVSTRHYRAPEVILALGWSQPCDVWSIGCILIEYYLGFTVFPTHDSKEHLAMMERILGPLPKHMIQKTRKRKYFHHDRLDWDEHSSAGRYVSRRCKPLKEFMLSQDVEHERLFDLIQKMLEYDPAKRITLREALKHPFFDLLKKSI
Description: as §1

[6] = target: T6, CLK2 (Homo sapiens, UniProt P49760); assay: Carna IC50 determination; format: biochemical; settings: around Km [ATP]
T6 construct: purchased Carna Biosciences
T6 sequence (P49760 whole entry): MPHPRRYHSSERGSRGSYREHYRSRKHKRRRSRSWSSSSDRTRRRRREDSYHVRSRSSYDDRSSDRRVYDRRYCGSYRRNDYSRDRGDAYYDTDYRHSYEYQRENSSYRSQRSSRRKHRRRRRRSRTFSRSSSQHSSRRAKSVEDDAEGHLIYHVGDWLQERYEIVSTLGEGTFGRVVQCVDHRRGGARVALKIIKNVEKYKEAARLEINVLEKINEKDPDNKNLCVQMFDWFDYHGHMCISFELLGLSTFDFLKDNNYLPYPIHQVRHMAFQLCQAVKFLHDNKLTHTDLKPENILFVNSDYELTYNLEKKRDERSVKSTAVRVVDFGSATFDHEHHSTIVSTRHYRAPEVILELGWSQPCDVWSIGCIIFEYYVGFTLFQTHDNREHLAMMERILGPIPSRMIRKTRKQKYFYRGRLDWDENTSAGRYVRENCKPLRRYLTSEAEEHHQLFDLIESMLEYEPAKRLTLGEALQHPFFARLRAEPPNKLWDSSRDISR
Description: as §1

[7] = target: T7, CDK2/cyclin E (Homo sapiens, UniProt P24941); assay: Kinase assay with recombinant CDK/cyclins (Cyclacel); format: biochemical
T7 construct: made in house
Description: (§2) Kinase assays for CDK2, CDK4, CDK7 and CDK9 were carried out as described previously using recombinant CDK/cyclins generated at Cyclacel Ltd, Dundee, UK [29, 34, 35].

[8] = target: T3, CDK4/cyclin D3; assay: as above; format: biochemical
Description: as §2

[9] = target: T8, CDK7/cyclin H1/MAT1 (Homo sapiens, UniProt P50613); assay: as above; format: biochemical
T8 construct: purchased Carna Biosciences
T8 sequence (P50613 whole entry): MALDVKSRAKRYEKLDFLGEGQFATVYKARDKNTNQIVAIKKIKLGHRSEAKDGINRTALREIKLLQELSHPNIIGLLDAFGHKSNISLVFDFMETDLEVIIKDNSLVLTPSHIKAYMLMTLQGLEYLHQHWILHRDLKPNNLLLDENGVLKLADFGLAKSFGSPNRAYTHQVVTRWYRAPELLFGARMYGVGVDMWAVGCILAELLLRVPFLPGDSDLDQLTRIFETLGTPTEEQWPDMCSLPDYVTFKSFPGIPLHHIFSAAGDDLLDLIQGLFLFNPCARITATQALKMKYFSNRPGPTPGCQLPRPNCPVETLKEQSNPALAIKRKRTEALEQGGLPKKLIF
T8 sequence (P51946 whole entry partner): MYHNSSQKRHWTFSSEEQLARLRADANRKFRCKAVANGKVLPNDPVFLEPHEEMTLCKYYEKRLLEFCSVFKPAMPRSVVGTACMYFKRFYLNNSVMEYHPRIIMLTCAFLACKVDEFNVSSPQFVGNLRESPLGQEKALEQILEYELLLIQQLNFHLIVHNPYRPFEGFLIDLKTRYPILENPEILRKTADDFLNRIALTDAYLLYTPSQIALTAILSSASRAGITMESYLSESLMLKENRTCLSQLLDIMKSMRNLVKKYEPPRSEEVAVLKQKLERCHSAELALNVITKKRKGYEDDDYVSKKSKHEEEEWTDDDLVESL
T8 sequence (P51948 whole entry partner): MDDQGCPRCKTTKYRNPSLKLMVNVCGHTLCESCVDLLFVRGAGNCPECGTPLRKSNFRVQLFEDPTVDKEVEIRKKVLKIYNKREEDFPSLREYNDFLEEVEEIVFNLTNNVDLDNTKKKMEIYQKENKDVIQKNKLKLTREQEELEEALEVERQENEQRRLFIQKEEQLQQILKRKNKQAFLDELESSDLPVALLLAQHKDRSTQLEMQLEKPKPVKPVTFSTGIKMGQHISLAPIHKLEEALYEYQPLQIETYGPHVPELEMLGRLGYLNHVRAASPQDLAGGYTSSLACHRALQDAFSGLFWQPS
Description: as §2

[10] = tested on: subcutaneous EOL-1 tumors; assay: EOL-1 human eosinophilic leukemia xenograft model; format: in vivo, SCID mice; settings: for tumor growth inhibition (TGI): Day 19; for median TGI: day 9
Description: Female athymic CB-17 SCID (Harlan Sprague-Dawley) mice between 6–7 weeks of age weighing approximately 22 grams were housed in a 12-h light-dark cycle at 70–74°F (21–23°C) and 40–60% humidity. Animals were fed water ad libitum (reverse osmosis, 2 ppm Cl2) and an irradiated standard rodent diet (Teklad 2919) consisting of 19% protein, 9% fat, and 4% fiber. Mice were injected subcutaneously into the right flank with 1x10^7 EOL-1 cells in 100 μl of a 1:1 HBSS:Matrigel solution. When tumors reached approximately 125–250 mm^3, animals were matched by tumor volume and then randomized into treatment and control groups before dosing was initiated. […] Cytarabine, also known as cytosine arabinoside (AraC), was administered by daily ip injection for 5 days only. Agent toxicity was assessed by effects on body weight and clinical signs. Animals were weighed twice weekly using a digital scale (Ohaus SP601). Beginning on Day 0, tumor dimensions were measured twice weekly by digital caliper (Fowler Ultra-Cal IV); tumor volume was calculated using the formula TV = width^2 x length x 0.52. […] Statistical differences in tumor volume were determined using a two-tailed One-Way Analysis of Variance (ANOVA) followed by the Dunnett’s multiple comparisons test comparing treated groups with control. For animal welfare the following methods were used: (a) methods of sacrifice: isoflurane anesthesia followed by cervical dislocation; (b) methods of anesthesia and/or analgesia: isoflurane anesthesia and (c) efforts to alleviate suffering: carprofen if animal veterinarian decides necessary or euthanasia.

[11] = tested on: panel of 256 kinases; assay: Carna 256-kinase selectivity panel, overall; format: biochemical; settings: 1 μM
Description: as §1

[12] = tested on: HEL; assay: Viacount viability assay by flow cytometry; format: cell-based, human; settings: 6 h pulse, up to 2 μM, assessed at 48 h
Description: (§3) AML cells were seeded at 5 x 10^5 cells/ml in a 6-well plate and incubated with the test compound or vehicle control (DMSO) for 6, 8 or 10 h. At the end of the incubation period, cells were collected into Falcon tubes, pelleted via centrifugation (5 min at 478 x g), and medium containing compound was aspirated. The cells were resuspended in 4 ml of fresh compound-free medium and returned to the 6-well plates for further incubation. Following compound addition, 100 μl (at 24 h), 75 μl (at 48 h), 50 μl (at 72 h) or 30 μl (at 96 h) of a homogeneous suspension of cells were removed from the culture, made up to 100 μl with medium and mixed with 100 μl Guava Viacount reagent (Millipore, Nottingham, UK) in a 96-well plate. Samples were incubated for 20 min in the dark, mixed and then analyzed by GuavaSoft 2.6 software on the Guava Easycyte 8HT (Millipore). Guava Viacount software was used to gate and calculate the proportion of viable and dead cells in the population.

[13] = tested on: KG-1; assay: Viacount viability assay by flow cytometry; format: cell-based, human; settings: 6 h pulse, up to 2 μM, assessed at 48 h
Description: as §3

[14] = tested on: Kasumi-1 cells; assay: Viacount viability assay by flow cytometry; format: cell-based, human; settings: 6 h pulse, 0.5 or 1.0 μM, assessed at 24 h
Description: as §3

[15] = tested on: sensitive AML cell lines; assay: Viacount viability assay by flow cytometry; format: cell-based; settings: Homo sapiens, 6 h pulse, assessed at 48 h, read-out: non-viable cells
Description: as §3

[16] = tested on: H23; assay: Resazurin reduction cell viability assay; format: cell-based, human; settings: 6 h pulse
[17] = tested on: all five cell lines (Cal51, MDA-MB-468, HCC1954, MCF10A, 184A1); assay: Standard 72 h viability assay, breast panel; format: cell-based; settings: Homo sapiens
Description: Solid tumor cell lines were seeded in 100 μl medium into 96-well plates at an appropriate cell number determined by a cell dilution assay (Cal51–2000 cells/well; Colo205, MCF10A and 184A1–3000 cells/well and MDA-MB-468, HCC1954–4000 cells/well). AML suspension cells were seeded in 96-well plates at approximately 3000 cells per well. Cells were incubated overnight at 37°C, 5% CO2. The following day, 100 μl fresh medium containing increasing concentrations of appropriate compound was added and the cells were incubated for up to 72 h at 37°C, 5% CO2. For pulse treatment of solid (adherent) tumor cell lines, medium was aspirated and replaced with fresh drug-free medium. For pulse treatment of suspension lines, plates were centrifuged at 478 xg for 5 min at the end of the incubation period with compound, medium containing compound was carefully aspirated and replaced with fresh compound-free medium. A total of 72 h after the start of treatment, 20 μl of a 10X stock of resazurin sodium salt (Sigma-Aldrich, Dorset, UK) prepared in medium was added to the cells and incubated for up to 3 h. […] was measured on the Wallac Victor plate reader (Cambridge, UK) at 544–595 nm. IC50/70/90 calculations were determined in XLFit.

[18] = 40 mg/kg oral qd x 5 for 2 weeks
[19] = 55 mg/kg oral qd x 5 for 2 weeks

Question: What does the source list for CC[C@H](Nc1nc(NCc2cnc(C)cc2C)c2ncn(C(C)C)c2n1)[C@@H](C)O [Fadraciclib, 2-pentanol, 3-[[6-[[(4,6-dimethyl-3-pyridinyl)methyl]amino]-9-(1-methylethyl)-9Hpurin-2-yl]amino]-, (2R,3S)]?
Answer: IC50 [1]: 4.5 ± 0.4 nM; IC50 [2]: 29 nM and 28.9 nM; IC50 [3]: 232 ± 27 nM; IC50 [4]: 20.5 ± 1 nM; IC50 [5]: 549 ± 81 nM; IC50 [6]: 252 ± 8 nM; IC50 [7]: 20 ± 1 nM; IC50 [8]: > 10000 nM; IC50 [9]: 730 ± 160 nM; tumor growth inhibition (TGI) [10, 18]: 97%; median TGI [10, 18]: 95%; transient body weight loss ([10]; 55 mg/kg oral): 2%; tumor growth inhibition (TGI) [10, 19]: 100%; median TGI [10, 19]: 97%; number of kinases inhibited >50% [11]: 9; apoptosis (non-viable cells) [12]: no appreciable increase in apoptosis; apoptosis (non-viable cells) [13]: approximately 50%; cells induced into apoptosis (dead cells) [14]: up to 80%; cytotoxicity at 1 µM [15]: ~100%; IC50, short pulse [16]: submicromolar; IC50 [17]: ≤ 400 nM
